Test results published in patent US5002932A, “Antiviral pharmaceutical compositions and method of treating herpes” (priority 1987, dated 1991).
Bridge positions count the residues as written; N and C are the ends. Square brackets hold non-standard residues; d marks the D form. Peptide text beside a SMILES is read from it. * marks the point of attachment. Ileψ(thiazoline)Cys = CC[C@H](C)[C@H](N)C1=N[C@H](C(=O)*)CS1; dOrn = NCCC[C@@H](N)C(=O)O

Tests used:
HSV-2 (strain HG-52) = test: Inhibition of HSV-2 replication in serum-starved BHK 21/C13 cells (cell culture technique, virus titration); assay type: cell-based; details: for PFU per cell for control/PFU per cell for agent: 30 hours post infection; for PFU PER CELL: infected BHK 21/C13 cells harvested 30 hours post infection, control 67.00
Description: This method in a modified form is exemplified hereinafter.
(a) Preparation of serum-starved cells: A medium composed of alpha medium (Gibco Canada Inc, Burlington, Ontario, Canada) and fetal calf serum (Gibco Canada Inc.), in a 9:1 volume ratio, was placed in tissue culture dishes (35 mm, A/S Nunc, Kamstrup, Denmark). The medium in each dish was seeded with BHK 21/C13 cells (1.5 ×10^6 for each dish). (BHK 21/C13 cells have been described by Y. Langelier and G. Buttin, J. Gen. Virol., 57, 21 (1981)). After 6 hours, the medium was replaced with a new medium composed of alpha medium and fetal calf serum (99.5:0.5 v/v). The resultant preparation was incubated at 37° C. for 4 days.
(b) Cell infection in BBMT medium* without serum: The incubation medium was removed from the cells. The cells were washed twice with alpha medium (without the serum) and once with the BBMT medium. The cells were then incubated at 37° C. in BBMT medium for two hours. A series of viral solutions were prepared from a stock of HSV-2 (strain HG-52, described by Langelier and Buttin, supra) and the appropriate choice and amounts of the agents to be tested, diluted with BBMT to give viral solutions having a multiplicity of infection of 0.02 plaque forming units (PFU) per cell. A control viral solution (without any agent) also was prepared. Each viral solution (250 μl) was added to duplicate dishes containing the previously prepared cells in BBMT medium. After one hour of incubation at 37° C. for virus absorption, the medium in each dish was removed by aspiration. The cells were washed twice with BBMT medium. Fresh BBMT medium (800 μl), with or without (control) the appropriate concentration of the test agent, was added to the dishes which were further incubated at 37° C. Every six hours, a concentrated solution of bacitracin in BBMT was added to the appropriate dishes to maintain the initial concentration of that agent.
*BBMT medium is described by P. Brazeau et al., Proc. Natl. Acad. Sci. USA, 79, 7909 (1982).
(c) Harvesting: At 30 hours post-infection, cells were detached with a rubber policeman and frozen at -80° C. until titration.
(d) Titration: Virus titration were performed according to the method of B. B. Wentworth and L. French, Proc. Soc. Exp. Biol. Med., 131, 588 (1969).
The following table is illustrative of the results obtained when acyclovir, bacitracin and combinations thereof were tested for activity according to the preceding method. Results are expressed in PFU per cell for infected cells harvested at 30 hours post infection. The lower the PFU per cell value, the greater the inhibitory effect on viral replication of the tested agent.

[1] = test system: herpes simplex virus type 1 (HSV-1); details: bacitracin used alone; reported by Alarcon et al.; cited from earlier work

SMILES | PFU per cell for control/PFU per cell for agent (HSV-2 (strain HG-52); Acyclovir 0.50 μM) | PFU PER CELL (HSV-2 (strain HG-52); Acyclovir 0.50 μM) [PFU per cell] | PFU per cell for control/PFU per cell for agent (HSV-2 (strain HG-52); Acyclovir 2.00 μM) | PFU PER CELL (HSV-2 (strain HG-52); Acyclovir 2.00 μM) [PFU per cell] | activity against herpes simplex virus type 1 (HSV-1) [1] | PFU per cell for control/PFU per cell for agent (HSV-2 (strain HG-52); Bacitracin 0.25 mM) | PFU PER CELL (HSV-2 (strain HG-52); Bacitracin 0.25 mM) [PFU per cell] | PFU per cell for control/PFU per cell for agent (HSV-2 (strain HG-52); Bacitracin 0.50 mM) | PFU PER CELL (HSV-2 (strain HG-52); Bacitracin 0.50 mM) [PFU per cell] | PFU per cell for control/PFU per cell for agent (HSV-2 (strain HG-52); Bacitracin 0.75 mM) | PFU PER CELL (HSV-2 (strain HG-52); Bacitracin 0.75 mM) [PFU per cell] | PFU per cell for control/PFU per cell for agent (HSV-2 (strain HG-52); Bacitracin 1.00 mM) | PFU PER CELL (HSV-2 (strain HG-52); Bacitracin 1.00 mM) [PFU per cell]
Nc1nc2c(ncn2COCCO)c(=O)[nH]1 [Acyclovir, 9-((2-hydroxyethoxy)methyl)guanine] | 3.96 | 16.9 | 13.67 | 4.9 | – | – | – | – | – | – | – | – | –
CC[C@H](C)[C@H](N)C1=N[C@H](C(=O)N[C@@H](CC(C)C)C(=O)N[C@H](CCC(=O)O)C(=O)N[C@H](C(=O)N[C@H]2CCCCNC(=O)[C@H](CC(N)=O)NC(=O)[C@@H](CC(=O)O)NC(=O)[C@H](Cc3cnc[nH]3)NC(=O)[C@@H](Cc3ccccc3)NC(=O)[C@H]([C@@H](C)CC)NC(=O)[C@@H](CCCN)NC2=O)[C@@H](C)CC)CS1 [Bacitracin] ({Ileψ(thiazoline)Cys}-L[dE]IK[dOrn]I[dF]H[dD]N; lactam 4-C) | – | – | – | – | inactive | 62.0 | 1.08 | 515.0 | 0.13 | 4786.0 | 0.014 | 8375.0 | 0.008
